Data published in article PMC6934184, “Selective DNA-PKcs inhibition extends the therapeutic index of localized radiotherapy and chemotherapy” (The Journal of Clinical Investigation, 2019).

Molecular target: T1, AMPK (A1/B2/G1) (Homo sapiens, UniProt Q13131)
T1 construct: purchased Thermo Fisher Scientific (Life Technologies) SelectScreen
Test: SelectScreen LanthaScreen
Assay type: binding
Conditions: read-out: % displacement
How it was run: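 SelectScreen broad panel; activity (Z'LYTE, Adapta) plus binding formats. ATP: Km app for CSF1R Z'LYTE; 10 for CAMK1 Adapta. Readout = % per kinase.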

T1 sequence (Q13131 whole entry): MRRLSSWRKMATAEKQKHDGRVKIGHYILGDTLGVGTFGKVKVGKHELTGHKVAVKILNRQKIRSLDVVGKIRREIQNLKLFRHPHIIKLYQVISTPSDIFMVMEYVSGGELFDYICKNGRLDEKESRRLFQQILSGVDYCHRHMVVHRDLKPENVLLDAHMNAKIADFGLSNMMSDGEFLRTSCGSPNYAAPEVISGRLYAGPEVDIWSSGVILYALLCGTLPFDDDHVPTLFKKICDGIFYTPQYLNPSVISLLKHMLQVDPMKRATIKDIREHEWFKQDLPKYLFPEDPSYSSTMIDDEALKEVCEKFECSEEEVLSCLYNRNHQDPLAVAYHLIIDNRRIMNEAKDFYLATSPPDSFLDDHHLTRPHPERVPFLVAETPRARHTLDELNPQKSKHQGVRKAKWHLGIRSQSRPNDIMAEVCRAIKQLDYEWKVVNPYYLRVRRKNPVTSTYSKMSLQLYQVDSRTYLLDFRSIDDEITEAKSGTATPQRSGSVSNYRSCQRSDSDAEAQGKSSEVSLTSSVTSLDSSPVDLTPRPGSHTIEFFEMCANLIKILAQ
T1 sequence (O43741 whole entry partner): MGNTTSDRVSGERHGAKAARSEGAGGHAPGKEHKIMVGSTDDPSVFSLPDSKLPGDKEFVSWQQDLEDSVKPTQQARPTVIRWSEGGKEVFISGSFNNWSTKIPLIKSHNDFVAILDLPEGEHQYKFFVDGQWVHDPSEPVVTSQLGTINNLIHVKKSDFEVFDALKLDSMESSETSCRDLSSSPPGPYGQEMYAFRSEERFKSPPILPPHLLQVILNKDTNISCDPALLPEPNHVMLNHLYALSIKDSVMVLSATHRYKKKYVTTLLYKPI
T1 sequence (P54619 whole entry partner): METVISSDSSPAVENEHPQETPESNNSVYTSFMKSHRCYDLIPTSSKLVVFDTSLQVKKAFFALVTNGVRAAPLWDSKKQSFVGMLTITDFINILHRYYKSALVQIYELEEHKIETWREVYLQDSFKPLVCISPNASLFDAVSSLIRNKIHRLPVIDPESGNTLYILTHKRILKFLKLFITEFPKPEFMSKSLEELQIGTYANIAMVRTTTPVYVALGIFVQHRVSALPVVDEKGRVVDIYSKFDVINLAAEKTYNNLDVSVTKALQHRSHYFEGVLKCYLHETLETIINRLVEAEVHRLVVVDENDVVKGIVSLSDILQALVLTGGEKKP

Molecule `CN(C(=O)CN1CCOCC1)c1ccc2sc3c(-c4cccc5c(=O)cc(N6CC7CCC(C6)O7)oc45)cccc3c2c1` [NU5455] has an inhibition at 1 µM of 0.9%.
